Where “and” joins values, the source holds several entries; their conditions need not be identical. Identical values can stand only once.
Experiments:
[1] = system: adrenergic receptors α1D, α2A, α2B; serotonin receptor 5-HT6; dopamine receptor D2L; assay: Classification of compounds (Type 1-4) from receptor binding and neurite outgrowth
Source text: Compounds of the invention that inhibit binding of a ligand to adrenergic receptors α1D, α2A, α2B and serotonin receptor 5-HT6 by at least about 80% as determined in a suitable assay such as the assays described herein can be classified as Type 1 compounds. […] In one variation, binding of a ligand to serotonin receptor 5-HT7 is at least about 80%. […] Weak inhibition of binding of a ligand to the histamine H1 receptor is permitted as agonists of this receptor have been implicated in stimulating memory as well as weight gain. In one variation, binding to histamine receptor H1 is inhibited by less than about 80%. […] Compounds that inhibit binding of a ligand to the dopamine D2L receptor by at least about 80% as determined in a suitable assay such as the assay described herein can be classified as Type 2 compounds.
In one variation, Type 1 compounds further inhibit binding of a ligand to dopamine receptor D2L by less than about 80% as determined in a suitable assay known in the art such as the assay described herein. […] In one variation, binding of a ligand to serotonin receptor 5-HT7, 5-HT2A and/or 5-HT2C is inhibited by at least about 80% as determined in a suitable assay such as the assays described herein. […] In one variation, binding of a ligand to histamine receptor H1 and/or H2 is inhibited by less than about 80% as determined by a suitable assay known in the art such as the assays described herein.
In one variation, biding to serotonin receptor 5-HT2A is inhibited by at least about 80% as determined in a suitable assay know in the art such as the assay described herein.

[2] = molecular target: T1, human recombinant dopamine D2L receptor (Homo sapiens, UniProt P14416); assay: Dopamine D2L antagonist activity ([35S]GTPγS binding, SPA); assay type: biochemical
T1 construct: expressed in transfected cells; host or cells: CHO cells
T1 sequence (P14416 whole entry): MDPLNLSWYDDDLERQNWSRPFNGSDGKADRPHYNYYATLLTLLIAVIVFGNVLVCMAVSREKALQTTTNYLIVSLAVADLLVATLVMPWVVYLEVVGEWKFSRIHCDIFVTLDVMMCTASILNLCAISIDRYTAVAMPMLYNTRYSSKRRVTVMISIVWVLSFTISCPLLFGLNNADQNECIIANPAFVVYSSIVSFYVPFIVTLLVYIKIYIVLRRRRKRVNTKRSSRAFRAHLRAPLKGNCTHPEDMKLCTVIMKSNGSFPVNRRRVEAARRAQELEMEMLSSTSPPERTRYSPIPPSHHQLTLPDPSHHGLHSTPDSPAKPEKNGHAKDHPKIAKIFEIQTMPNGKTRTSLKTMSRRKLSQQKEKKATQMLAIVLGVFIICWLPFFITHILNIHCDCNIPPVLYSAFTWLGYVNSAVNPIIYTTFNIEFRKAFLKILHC
Protocol: To determine for agonist or antagonist activity of compounds of the invention in functional assays, human recombinant dopamine D2L receptor stably expressed in Chinese hamster ovary (CHO) cells (Senogles S E et al. J Biol Chem. 265(8): 4507, 1990) was used. Compounds of invention were pre-incubated with the membranes (0.1 mg/ml) and […] in modified HEPES buffer (20 mM HEPES, pH 7.4, 100 mM NaCl, 10 mM MgCl2, 1 mM DTT, 1 mM EDTA) for 20 minutes and Scintillation Proximity Assay (SPA) beads were added for another 60 minutes at 30° C. The reaction was initiated by 0.3 nM [^35S]GTPγS for an additional 15 minute incubation period. […] Compounds were screened at 3 μM or lower, using 0.4% DMSO as vehicle. Assay results are presented as the percent response of specific binding in Table 8.

[3] = molecular target: human recombinant dopamine D2S receptor (Homo sapiens, UniProt P14416); assay: Dopamine D2S antagonist activity ([35S]GTPγS binding, SPA); assay type: biochemical
human recombinant dopamine D2S receptor, sequence (P14416 1-414 isoform P14416-2): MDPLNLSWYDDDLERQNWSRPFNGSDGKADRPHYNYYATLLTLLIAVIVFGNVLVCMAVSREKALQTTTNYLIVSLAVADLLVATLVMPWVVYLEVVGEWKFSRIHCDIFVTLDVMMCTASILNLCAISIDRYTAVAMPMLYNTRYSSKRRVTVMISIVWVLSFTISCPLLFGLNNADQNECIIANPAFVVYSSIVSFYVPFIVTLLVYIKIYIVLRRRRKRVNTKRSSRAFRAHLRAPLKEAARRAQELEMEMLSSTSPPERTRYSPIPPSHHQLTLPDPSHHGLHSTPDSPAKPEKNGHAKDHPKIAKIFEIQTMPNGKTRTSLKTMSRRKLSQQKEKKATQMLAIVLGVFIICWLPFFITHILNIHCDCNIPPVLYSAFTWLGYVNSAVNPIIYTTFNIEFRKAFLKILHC
Protocol: To determine for agonist or antagonist activity of compounds of the invention in functional assays, human recombinant dopamine D2S receptor stably expressed in Chinese hamster ovary (CHO) cells (Gilliland S L and Alper R H. Naunyn-Schmiedeberg's Archives of Pharmacology. 361: 498, 2000) was used. Compounds of invention were pre-incubated with the membranes (0.05 mg/ml) and 3 μM GDP in modified HEPES buffer (20 mM HEPES, pH 7.4, 100 mM NaCl, 10 mM MgCl2, 1 mM DTT, 1 mM EDTA) for 20 minutes and Scintillation Proximity Assay (SPA) beads were then added for another 60 minutes at 30° C. The reaction was initiated by 0.3 nM [^35S]GTPγS for an additional 30 minute incubation period. […] Compounds were screened at 3 μM or lower, using 0.4% DMSO as vehicle. Assay results are presented as the percent response of specific binding in Table 9.

[4] = molecular target: T2, human recombinant serotonin 5-HT2A receptor (Homo sapiens, UniProt P28223); assay: Serotonin 5-HT2A agonist/antagonist functional assay (calcium fluorescence, HEK-293); assay type: cell-based; conditions: antagonist mode
T2 construct: expressed in transfected cells; host or cells: HEK-293 cells
T2 sequence (P28223 whole entry): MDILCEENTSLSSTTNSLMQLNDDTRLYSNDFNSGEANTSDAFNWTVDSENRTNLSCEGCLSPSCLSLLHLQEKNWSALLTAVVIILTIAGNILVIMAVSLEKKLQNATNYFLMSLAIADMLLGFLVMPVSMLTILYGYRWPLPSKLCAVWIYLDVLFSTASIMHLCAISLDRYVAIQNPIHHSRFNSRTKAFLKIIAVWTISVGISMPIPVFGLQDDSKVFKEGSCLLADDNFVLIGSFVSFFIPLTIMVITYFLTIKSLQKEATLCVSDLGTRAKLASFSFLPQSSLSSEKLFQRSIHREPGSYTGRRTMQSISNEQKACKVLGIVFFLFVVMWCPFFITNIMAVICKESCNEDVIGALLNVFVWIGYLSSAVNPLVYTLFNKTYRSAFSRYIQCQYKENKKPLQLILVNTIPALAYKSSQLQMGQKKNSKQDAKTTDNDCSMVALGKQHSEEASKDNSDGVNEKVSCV
Source text: To determine for agonist or antagonist activity of compounds of the invention in functional assays, human recombinant serotonin 5-HT2A receptor expressed in human embryonic kidney (HEK-293) cells (Jerman J C, Brough S J, Gager T, Wood M, Coldwell M C, Smart D and Middlemiss D N. Eur J Pharmacol, 414: 23-30, 2001) was used. Cells were suspended in DMEM buffer, and distributed in microplates. A cytoplasmic calcium fluorescent indicator which varies proportionally to the free cytosolic Ca^2+ ion concentration was mixed with probenicid in HBSS buffer complemented with 20 mM Hepes (pH 7.4), added into each well and equilibrated with the cells for 30 min at 37° C. followed by 30 min at 22° C. […]
The standard reference antagonist was ketanserin, which was tested in each experiment at several concentrations to generate a concentration-response curve from which its IC50 value was calculated.

[5] = 0.3 uM, two values = assay run twice, read-out: Antagonist Activity As Measured by % Inhibition D2L
[6] = two values = assay run twice, read-out: Antagonist Activity As Measured by % Inhibition D2S
[7] = 0.03 uM, two values = assay run twice

Cc1ccc(C(O)Cn2c3c(c4cc(C)ccc42)CN(C)CC3)cc1 (racemic) [Compound 28, racemic-2-(1,2,3,4-tetrahydro-2,8-dimethylpyrido[4,3-b]indol-5-yl)-1-p-tolylethanol]
compound type (classification by receptor binding profile and neurite outgrowth) [1]: Type one

Cc1ccc(CCn2c3c(c4cc(Cl)ccc42)CN(C)CC3)cc1 [Compound 43]
compound type (classification by receptor binding profile and neurite outgrowth) [1]: Type one

CN1CCc2c(c3cc(Cl)ccc3n2CCc2ccc(Cl)cc2)C1 [Compound 45, 5-(4-chlorophenethyl)-8-chloro-2,3,4,5-tetrahydro-2-methyl-1H-pyrido[4,3-b]indole]
compound type (classification by receptor binding profile and neurite outgrowth) [1]: Type one

Cc1ccc(CCn2c3c(c4cc(C(F)(F)F)ccc42)CN(C)CC3)cc1 [Compound 47]
compound type (classification by receptor binding profile and neurite outgrowth) [1]: Type one

CN1CCc2c(c3cc(Cl)ccc3n2CCc2cccnc2)C1 [Compound 55]
compound type (classification by receptor binding profile and neurite outgrowth) [1]: Type one

CN1CCc2c(c3cc(Cl)ccc3n2CCc2ccncc2)C1 [Compound 56]
compound type (classification by receptor binding profile and neurite outgrowth) [1]: Type one

Cc1ccc2c(c1)c1c(n2CCc2cccnc2)CCN(C)C1 [Compound 60]
compound type (classification by receptor binding profile and neurite outgrowth) [1]: Type one

Cc1ccc2c(c1)c1c(n2CCc2ccc(C(F)(F)F)nc2)CCN(C)C1 [Compound 68]
inhibition at 0.3 µM [2, 5]: 8% | inhibition at 1 µM ([2]; 1 uM, read-out: Antagonist Activity As Measured by % Inhibition D2L): 27% | inhibition at 3 µM ([2]; 3 uM, read-out: Antagonist Activity As Measured by % Inhibition D2L): 54% | inhibition at 0.3 µM [3, 6]: 42% | inhibition at 1 µM ([3]; 1 uM, read-out: Antagonist Activity As Measured by % Inhibition D2S): 70% | inhibition at 3 µM ([3]; 3 uM, read-out: Antagonist Activity As Measured by % Inhibition D2S): 93% | compound type (classification by receptor binding profile and neurite outgrowth) [1]: Type one

CN1CCc2c(c3cccc(Cl)c3n2CCc2ccccc2)C1 [Compound 83]
compound type (classification by receptor binding profile and neurite outgrowth) [1]: Type one

CN1CCc2c(c3cc(Cl)ccc3n2CCc2ccc(F)cc2)C1 [Compound 162, 5-(4-fluorophenethyl)-8-chloro-2,3,4,5-tetrahydro-2-methyl-1H-pyrido[4,3-b]indole]
compound type (classification by receptor binding profile and neurite outgrowth) [1]: Type one

Cc1ccc(CCn2c3c(c4cc(Cl)ccc42)CN(C)CC3)cn1 [Compound 225, 8-chloro-2,3,4,5-tetrahydro-2-methyl-5-(2-(6-methylpyridin-3-yl)ethyl)-1H-pyrido[4,3-b]indole]
compound type (classification by receptor binding profile and neurite outgrowth) [1]: Type one

CN1CCc2c(c3cc(F)ccc3n2CCc2ccc(F)cc2)C1 [Compound 253]
% of Control Agonist Response, 1st Assay ([4]; test concentration 1.00E−06 M): 0% | % of Control Agonist Response, 2nd Assay ([4]; test concentration 1.00E−06 M): 3% | % of Control Agonist Response, Mean ([4]; test concentration 1.00E−06 M): 1.5% | % of Control Agonist Response, 1st Assay ([4]; test concentration 1.00E−07 M): 94% | % of Control Agonist Response, 2nd Assay ([4]; test concentration 1.00E−07 M): 95% | % of Control Agonist Response, Mean ([4]; test concentration 1.00E−07 M): 94.3% | % of Control Agonist Response, 1st Assay ([4]; test concentration 3.00E−06 M): −3% | % of Control Agonist Response, 2nd Assay ([4]; test concentration 3.00E−06 M): −3% | % of Control Agonist Response, Mean ([4]; test concentration 3.00E−06 M): −2.6% | % of Control Agonist Response, 1st Assay ([4]; test concentration 3.00E−07 M): 36% | % of Control Agonist Response, 2nd Assay ([4]; test concentration 3.00E−07 M): 80% | % of Control Agonist Response, Mean ([4]; test concentration 3.00E−07 M): 57.9% | % of Control Agonist Response, 1st Assay ([4]; test concentration 3.00E−08 M): 114% | % of Control Agonist Response, 2nd Assay ([4]; test concentration 3.00E−08 M): 119% | % of Control Agonist Response, Mean ([4]; test concentration 3.00E−08 M): 116.5% | Antagonist Activity As Measured by % Inhibition D2L [2, 7]: 56% | inhibition at 0.03 µM ([2]; 0.03 uM, two values = assay run twice, read-out: Antagonist Activity As Measured by % Inhibition D2L): 36% | Antagonist Activity As Measured by % Inhibition D2L ([2]; 0.1 uM, two values = assay run twice): 77% | inhibition at 0.1 µM ([2]; 0.1 uM, two values = assay run twice, read-out: Antagonist Activity As Measured by % Inhibition D2L): 57% | Antagonist Activity As Measured by % Inhibition D2L ([2]; 0.3 uM, two values = assay run twice): 89% | inhibition at 0.3 µM [2, 5]: 81% | Antagonist Activity As Measured by % Inhibition D2S [3, 7]: 104% and 80% | inhibition at 0.1 µM ([3]; 0.1 uM, two values = assay run twice, read-out: Antagonist Activity As Measured by % Inhibition D2S): 94% | inhibition at 0.3 µM [3, 6]: 96%

CCc1ccc2c(c1)c1c(n2CCc2ccc(C)nc2)CCN(C)C1 [Compound 357, 8-Ethyl-2-methyl-5-[2-(6-methyl-pyridin-3-yl)-ethyl]-2,3,4,5-tetrahydro-1H-pyrido[4,3-b]indole]
compound type (classification by receptor binding profile and neurite outgrowth) [1]: Type one

Cc1ccc2c(c1)c1c(n2CCc2ccc(C(C)C)nc2)CCN(C)C1 [Compound 360, 5-[2-(6-Isopropyl-pyridin-3-yl)-ethyl]-2,8-dimethyl-2,3,4,5-tetrahydro-1H-pyrido[4,3-b]indole]
compound type (classification by receptor binding profile and neurite outgrowth) [1]: Type one

CCc1ccc(CCn2c3c(c4cc(Cl)ccc42)CN(C)CC3)cn1 [Compound 371, 8-Chloro-5-[2-(6-ethyl-pyridin-3-yl)-ethyl]-2-methyl-2,3,4,5-tetrahydro-1H-pyrido[4,3-b]indole]
compound type (classification by receptor binding profile and neurite outgrowth) [1]: Type one

CC(C)c1ccc(CCn2c3c(c4cc(Cl)ccc42)CN(C)CC3)cn1 [Compound 372, 8-Chloro-5-[2-(6-isopropyl-pyridin-3-yl)-ethyl]-2-methyl-2,3,4,5-tetrahydro-1H-pyrido[4,3-b]indole]
compound type (classification by receptor binding profile and neurite outgrowth) [1]: Type one

Cc1ccc(CCn2c3c(c4cc(Cl)c(F)cc42)CN(C)CC3)cn1 [Compound 404, 8-Chloro-7-fluoro-2-methyl-5-[2-(6-methyl-pyridin-3-yl)-ethyl]-2,3,4,5-tetrahydro-1H-pyrido[4,3-b]indole]
compound type (classification by receptor binding profile and neurite outgrowth) [1]: Type one

Cc1ccc2c(c1)c1c(n2CCc2cncc(Cl)c2)CCN(C)C1 [Compound 443, 5-(2-(5-chloropyridin-3-yl)ethyl)-2,3,4,5-tetrahydro-2,8-dimethyl-1H-pyrido[4,3-b]indole]
compound type (classification by receptor binding profile and neurite outgrowth) [1]: Type one

CN1CCc2c(c3cc(Cl)ccc3n2CCc2cncc(Cl)c2)C1 [Compound 444, 8-chloro-5-(2-(5-chloropyridin-3-yl)ethyl)-2,3,4,5-tetrahydro-2-methyl-1H-pyrido[4,3-b]indole]
compound type (classification by receptor binding profile and neurite outgrowth) [1]: Type one

CCCc1ccc(CCn2c3c(c4cc(C)ccc42)CN(C)CC3)cn1 [Compound 452, 2,8-Dimethyl-5-[2-(6-propyl-pyridin-3-yl)-ethyl]-2,3,4,5-tetrahydro-1H-pyrido[4,3-b]indole]
compound type (classification by receptor binding profile and neurite outgrowth) [1]: Type one

Cc1ccc2c(c1)c1c(n2CC(C)c2ccc(F)cc2)CCN(C)C1 (stereo not drawn) [Compound 456, 5-(2-(4-fluorophenyl)propyl)-2,3,4,5-tetrahydro-2,8-dimethyl-1H-pyrido[4,3-b]indole]
compound type (classification by receptor binding profile and neurite outgrowth) [1]: Type one

CCCc1ccc(CCn2c3c(c4cc(Cl)ccc42)CN(C)CC3)cn1 [Compound 476, 8-chloro-2,3,4,5-tetrahydro-2-methyl-5-(2-(6-propylpyridin-3-yl)ethyl)-1H-pyrido[4,3-b]indole]
compound type (classification by receptor binding profile and neurite outgrowth) [1]: Type one

Reference: patent US9096591B2, “Tetracyclic compounds” (Medivation Technologies, Inc., priority 2007, dated 2015)
